Where a chain is given by its changes, count along the chain named.
Key:
[1] = system: Type II EPSPS from Agrobacterium sp. strain CP4; details: read-out: KM for PEP; U.S. Pat. No. 5,633,435; cited from earlier work
[2] = biological target: T1, Zea mays EPSPS variant Zm-H6 (868-H6) with A76V (H6-A76V) (Zea mays, UniProt O24566, A1R/A3W/A415G/A71Q/A75V/D401G/E301S/E390G/G101A/I207L/K83R/L97C/T278A/T360S/T440Q/V437R); experiment: Rapid two-rate method for (kcat/KM)*KI, H6-A76V; type: biochemical; details: [E] 0.07 uM, [Gly] 1000 uM
T1 sequence (O24566 with tags, fused parts or gaps A1R/A3W/A71Q/A75V/K83R/L97C/G101A/I207L/T278A/E301S/T360S/E390G/D401G/A415G/V437R/T440Q): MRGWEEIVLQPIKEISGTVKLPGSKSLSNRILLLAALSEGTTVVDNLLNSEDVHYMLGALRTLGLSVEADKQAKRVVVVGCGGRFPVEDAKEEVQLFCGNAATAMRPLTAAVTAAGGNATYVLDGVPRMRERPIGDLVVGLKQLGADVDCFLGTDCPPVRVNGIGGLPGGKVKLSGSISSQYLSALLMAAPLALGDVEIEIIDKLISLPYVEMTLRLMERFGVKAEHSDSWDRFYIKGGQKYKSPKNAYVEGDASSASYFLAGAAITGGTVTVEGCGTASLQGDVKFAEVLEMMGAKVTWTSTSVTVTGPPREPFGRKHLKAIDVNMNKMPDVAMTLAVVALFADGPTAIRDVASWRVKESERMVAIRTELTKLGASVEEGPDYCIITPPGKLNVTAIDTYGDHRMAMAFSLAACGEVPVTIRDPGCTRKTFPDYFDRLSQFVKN
Excerpt: (§1) There are several practical considerations for accurately estimating (kcat/KM)*KI with the rapid method. […] 2) The inhibitor concentration must be adjusted so as to obtain a degree of inhibition that minimally amplifies the error in the term v0-vi in Equation 3. If inhibition is too little, v0-vi will be small, and the error in the multiplier vi×v0/(v0-vi) will be large. […] 3) Substrate concentration should be set at the approximate KM of the parental variant(s), subject to the sensitivity of the assay. High substrate concentration obscures sensitivity to the inhibitor and reduces stringency for capturing improvements in KM. Depending on the necessity for speed, there exists opportunity for customizing enzyme and inhibitor concentrations. […] The rapid method was repeated for those and obtained data that correlated better with data obtained by substrate saturation analysis. For screening purposes however, that correlation step is not necessary. Conditions can be set so that variants with a pre-determined minimal fitness level are accurately quantified.
(§2) In Table 15, parameters above the heavy line for the rapid method were obtained under standard conditions. For variants shown below the heavy line, the rapid analysis was repeated with enzyme or glyphosate concentrations adjusted as needed to generate sufficient signal within the limits for linear initial rates.

[3] = biological target: Zea mays EPSPS variant 311S (Zea mays, UniProt O24566, P310S); experiment: EPSPS reaction rate with or without 10 uM glyphosate, 311S; type: biochemical; details: pH 7; read-out: Reaction rate with 10 μM glyph, % no glyph; further: 50 µM PEP and S3P
Sequence of Zea mays EPSPS variant 311S (O24566 entry or part of it P310S): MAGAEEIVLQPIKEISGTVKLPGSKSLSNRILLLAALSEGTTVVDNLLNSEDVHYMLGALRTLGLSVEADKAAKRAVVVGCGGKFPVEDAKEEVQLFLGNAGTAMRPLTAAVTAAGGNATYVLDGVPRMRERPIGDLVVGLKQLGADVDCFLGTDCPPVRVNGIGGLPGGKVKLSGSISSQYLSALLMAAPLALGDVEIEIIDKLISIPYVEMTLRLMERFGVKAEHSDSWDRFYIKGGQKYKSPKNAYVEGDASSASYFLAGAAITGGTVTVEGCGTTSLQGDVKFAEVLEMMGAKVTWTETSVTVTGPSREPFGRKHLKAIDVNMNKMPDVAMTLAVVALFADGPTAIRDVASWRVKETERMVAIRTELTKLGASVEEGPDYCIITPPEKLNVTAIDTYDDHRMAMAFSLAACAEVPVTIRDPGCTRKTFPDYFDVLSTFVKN

[4] = biological target: T2, Zea mays EPSPS, wild-type, SEQ ID NO:1 (Zea mays, UniProt O24566); experiment: EPSPS reaction rate with or without 10 uM glyphosate, native maize; type: biochemical; details: pH 7; read-out: Reaction rate with 10 μM glyph, % no glyph; further: 50 µM PEP and S3P
T2 construct: expressed in E. coli, purified
T2 sequence (O24566 entry or part of it): as the sequence (O24566 entry or part of it P310S) above, with S311P counted along it

[5] = biological target: T1, Zea mays EPSPS variant Zm-H6 (868-H6) with A76V (H6-A76V); experiment: Substrate saturation kinetic analysis with glyphosate, H6-A76V; type: biochemical
[6] = biological target: T3, Zea mays EPSPS variant Zm-H6 (868-H6) with A36G (H6-A36G) (Zea mays, UniProt O24566, A1R/A35G/A3W/A415G/A71Q/D401G/E301S/E390G/G101A/I207L/K83R/L97C/T278A/T360S/T440Q/V437R); experiment: Rapid two-rate method for (kcat/KM)*KI, H6-A36G; type: biochemical; details: [E] 0.07 uM, [Gly] 1000 uM
T3 sequence (O24566 with tags, fused parts or gaps A1R/A3W/A35G/A71Q/K83R/L97C/G101A/I207L/T278A/E301S/T360S/E390G/D401G/A415G/V437R/T440Q): T1 sequence (O24566 with tags, fused parts or gaps A1R/A3W/A71Q/A75V/K83R/L97C/G101A/I207L/T278A/E301S/T360S/E390G/D401G/A415G/V437R/T440Q) with A36G, V76A
Excerpt: as §1, §2

[7] = biological target: T4, Zea mays EPSPS variant Zm-H6 (868-H6) with K246G (H6-K246G) (Zea mays, UniProt O24566, A1R/A3W/A415G/A71Q/D401G/E301S/E390G/G101A/I207L/K245G/K83R/L97C/T278A/T360S/T440Q/V437R); experiment: Rapid two-rate method for (kcat/KM)*KI, H6-K246G; type: biochemical; details: [E] 0.07 uM, [Gly] 1000 uM
T4 construct: 868-H6 plus K246G; E. coli BL21(DE3), Ni-NTA purified
T4 sequence (O24566 with tags, fused parts or gaps A1R/A3W/A71Q/K83R/L97C/G101A/I207L/K245G/T278A/E301S/T360S/E390G/D401G/A415G/V437R/T440Q): T1 sequence (O24566 with tags, fused parts or gaps A1R/A3W/A71Q/A75V/K83R/L97C/G101A/I207L/T278A/E301S/T360S/E390G/D401G/A415G/V437R/T440Q) with V76A, K246G
Excerpt: as §1, §2

[8] = biological target: Zea mays EPSPS variant 202R (Zea mays, UniProt O24566, I201R); experiment: EPSPS reaction rate with or without 10 uM glyphosate, 202R; type: biochemical; details: pH 7; read-out: Reaction rate with 10 μM glyph, % no glyph; further: 50 µM PEP and S3P
Sequence of Zea mays EPSPS variant 202R (O24566 entry or part of it I201R): as the sequence (O24566 entry or part of it P310S) above, with I202R, S311P counted along it

[9] = biological target: Zea mays EPSPS variant 278V (Zea mays, UniProt O24566, T277V); experiment: EPSPS reaction rate with or without 10 uM glyphosate, 278V; type: biochemical; details: pH 7; read-out: Reaction rate with 10 μM glyph, % no glyph; further: 50 µM PEP and S3P
Sequence of Zea mays EPSPS variant 278V (O24566 entry or part of it T277V): as the sequence (O24566 entry or part of it P310S) above, with T278V, S311P counted along it

| SMILES | Km [1] | (kcat/KM)*KI [2] | activity at 10 µM [3] | activity at 10 µM [4] | Ki [5] | (kcat/KM)*KI ([5]; substrate saturation, H6-A76V) | (kcat/KM)*KI [6] | (kcat/KM)*KI [7] | activity at 10 µM [8] | activity at 10 µM [9] |
| --- | --- | --- | --- | --- | --- | --- | --- | --- | --- | --- |
| C=C(OP(=O)(O)O)C(=O)O [PEP, phosphoenolpyruvate] | 12 µM |  |  |  |  |  |  |  |  |  |
| O=C(O)CNCP(=O)(O)O [glyphosate, N-phosphonomethylglycine] |  | 2418 | 4.37% | 9.49% | 538 µM | 2490 | 4500 | 3495 | 7.48% | 3.25% |

Source: patent US11549123B2, “Plant EPSP synthases and methods of use” (PIONEER HI-BRED INTERNATIONAL, INC., priority 2015, dated 2023)
